Source: patent publication US7923462B2, “Catechol derivative, pharmaceutical composition containing the same, use of the catechol derivative, and use of the pharmaceutical composition” (Kissei Pharmaceutical Co., Ltd., priority 2007, dated 2011)

What was measured:
[1] = molecular target: T1, recombinant human COMT (Homo sapiens, UniProt P21964); assay: Human COMT inhibitory potency; format: biochemical; settings: catechol substrate, [3H]-S-adenosyl-L-methionine, 37° C. 30 minutes
T1 construct: GST (N, cleaved yes); made in house; host or cells: E. coli BL21 (DE3) CODON PLUS RP
T1 sequence (P21964 with tags, fused parts or gaps): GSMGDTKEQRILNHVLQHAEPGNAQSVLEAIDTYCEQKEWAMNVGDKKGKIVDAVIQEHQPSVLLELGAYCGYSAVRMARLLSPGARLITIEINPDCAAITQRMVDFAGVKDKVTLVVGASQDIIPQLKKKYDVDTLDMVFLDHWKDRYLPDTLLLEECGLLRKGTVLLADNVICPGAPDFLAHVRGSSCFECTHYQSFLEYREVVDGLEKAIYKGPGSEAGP

[2] = test system: unilateral 6-hydroxydopamine-lesioned hemi-Parkinsonian rats; assay: Potentiation of the efficacy of L-dopa, turning behavior; format: in vivo, Sprague-Dawley rats; settings: 10 mg/kg oral with 5 mg/kg L-dopa and 30 mg/kg carbidopa; for Total counts: contralateral rotation counts; for Duration: duration of contralateral turning response
[3] = test system: rat cryopreserved hepatocytes; assay: Rat hepatocyte toxicities (cell viability, ATP activity); format: cell-based; settings: concentration that shows 50% of the number of viable cells of control, 4 hours at 37° C.
[4] = Evaluation of plasma L-dopa concentration; format: in vivo, Sprague-Dawley rats; settings: percentage of control group, test compound 3 mg/kg oral, blood 2 hours later; for Plasma L-dopa (%) 4 hour: L-dopa 5 mg/kg and carbidopa 30 mg/kg oral 4 hours after; for Plasma L-dopa (%) 6 hour: L-dopa 5 mg/kg and carbidopa 30 mg/kg oral 6 hours after

SMILES: Cc1nc(-c2cc(O)c(O)c([N+](=O)[O-])c2C(=O)C2CCCCC2)no1 [Compound 1-20]
- IC50 [1]: 0.0087 µM

SMILES: CCOC(=O)c1c(-c2noc(C)n2)cc(O)c(O)c1[N+](=O)[O-] [Compound 1-14]
- Total counts [2]: 1678.4
- Duration [2]: 275.0 min

SMILES: COC(=O)c1c(-c2noc(C)n2)cc(O)c(O)c1[N+](=O)[O-] [Compound 1-5, methyl 3,4-dihydroxy-6-(5-methyl-[1,2,4]-oxadiazol-3-yl)-2-nitrobenzoate]
- EC50 [3]: > 1000 µM
- Total counts [2]: 2051.9
- Duration [2]: 321.3 min
- IC50 [1]: 0.0093 µM

SMILES: Cc1nc(-c2cc(O)c(O)c([N+](=O)[O-])c2C(=O)c2ccccc2)no1 [Compound 1-1, [3,4-Dihydroxy-6-(5-methyl-[1,2,4]oxadiazol-3-yl)-2-nitro-phenyl]phenylmethanone]
- EC50 [3]: 683 µM
- Plasma L-dopa (%) 4 hour [4]: 182.9 ± 5.0%
- Plasma L-dopa (%) 6 hour [4]: 189.2 ± 32.8%
- Total counts [2]: 2060.8
- Duration [2]: 293.8 min
- IC50 [1]: 0.0094 µM

SMILES: CCOCCc1nc(-c2cc(O)c(O)c([N+](=O)[O-])c2C(C)=O)no1 [Compound 1-37]
- IC50 [1]: 0.0047 µM

SMILES: Cc1nc(-c2cc(O)c(O)c([N+](=O)[O-])c2C(=O)c2ccno2)no1 [Compound 1-24]
- EC50 [3]: > 1000 µM
- IC50 [1]: 0.0076 µM

SMILES: Cc1ccc(C(=O)c2cc(O)c(O)c([N+](=O)[O-])c2)cc1 [Tolcapone, 3,4-dihydroxy-4′-methyl-5-nitro-benzophenone, reference compound]
- EC50 [3]: 34.3 µM

SMILES: COCc1nc(-c2cc(O)c(O)c([N+](=O)[O-])c2C(=O)OC)no1 [Compound 1-9]
- EC50 [3]: > 1000 µM
- IC50 [1]: 0.0077 µM

SMILES: CC(=O)c1c(-c2noc(C)n2)cc(O)c(O)c1[N+](=O)[O-] [Compound 1-2]
- EC50 [3]: 645 µM
- Total counts [2]: 2103.0
- Duration [2]: 312.5 min

SMILES: Cc1nc(-c2cc(O)c(O)c([N+](=O)[O-])c2C(=O)c2ccccc2F)no1 [Compound 1-22]
- EC50 [3]: 523 µM
- IC50 [1]: 0.0083 µM

SMILES: Cc1nc(-c2cc(O)c(O)c([N+](=O)[O-])c2C(=O)C(=O)NC2CCCCC2)no1 [Compound 1-40]
- IC50 [1]: 0.0088 µM

SMILES: Cc1nc(-c2cc(O)c(O)c([N+](=O)[O-])c2C(=O)C(=O)N(C)C2CCCCC2)no1 [Compound 1-41]
- IC50 [1]: 0.0047 µM

SMILES: Cc1noc(-c2cc(O)c(O)c([N+](=O)[O-])c2)n1 [Comparative example 1, 5-(3-methyl-[1,2,4]oxadiazol-5-yl)-3-nitro-benzene-1,2-diol, reference compound]
- EC50 [3]: 172 µM
- Plasma L-dopa (%) 4 hour [4]: 143.3 ± 13.3%
- Plasma L-dopa (%) 6 hour [4]: 106.9 ± 18.2%
- IC50 [1]: 0.0132 µM

SMILES: Cc1nc(-c2cc(O)c(O)c([N+](=O)[O-])c2C(=O)C(C)C)no1 [Compound 1-3, 1-[3,4-dihydroxy-6-(5-methyl-[1,2,4]-oxadiazol-3-yl)-2-nitrophenyl]-2-methylpropane-1-one]
- EC50 [3]: 698 µM
- IC50 [1]: 0.0081 µM
